This assay deals with NK1 receptor (Homo sapiens, UniProt P25103). In words: NK1 receptor binding: inhibition of Substance P binding, Ki from the 50% inhibition concentration. The settings on record: average Ki for the NK1 receptor. An excerpt: Compounds having the formula (I) can be effective antagonists of the NK1 receptor, and of an effect of its endogenous agonist, Substance P, at the NK1 receptor site, and therefore, can be useful in treating conditions caused or aggravated by the activity of said receptor. The in vitro and in vivo NK1, NK2 and NK3 activities of the compounds having the formula (I) can be determined by various procedures known in the art, such as a test for their ability to inhibit the activity of the NK1 agonist Substance P. The percent inhibition of neurokinin agonist activity is the difference between the percent of maximum specific binding (“MSB”) and 100%. The percent of MSB is defined by the following equation, wherein “dpm” represents “disintegrations per minute”:
[formula] The concentration at which the compound produces 50% inhibition of binding is then used to determine an inhibition constant (“Ki”) using the Chang-Prusoff equation.
The activities (potencies) for the compounds of the invention are determined by measuring their Ki values. […] Even more preferred are compounds having average Ki values of from 0.01 nM to about 10 nM for the NK1 receptor. The most preferred compounds have NK1 average Ki values of from 0.01 nM to about 3 nM.
Chain of NK1 receptor (P25103 whole entry, species assumed): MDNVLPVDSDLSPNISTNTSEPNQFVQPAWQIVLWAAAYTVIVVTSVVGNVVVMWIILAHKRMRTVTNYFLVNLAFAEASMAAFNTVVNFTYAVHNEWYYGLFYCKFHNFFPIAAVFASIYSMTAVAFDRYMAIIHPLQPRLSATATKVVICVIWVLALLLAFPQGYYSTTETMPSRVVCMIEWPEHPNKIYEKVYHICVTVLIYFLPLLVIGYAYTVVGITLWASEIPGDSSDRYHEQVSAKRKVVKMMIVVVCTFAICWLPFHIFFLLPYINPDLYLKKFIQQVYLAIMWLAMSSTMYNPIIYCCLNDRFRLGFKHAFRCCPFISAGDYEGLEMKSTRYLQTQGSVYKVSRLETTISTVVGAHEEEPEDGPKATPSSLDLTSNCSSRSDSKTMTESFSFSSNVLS
The Ki is a dissociation constant, usually derived from enzyme kinetics or from competition with a known ligand. Low values mean a stronger hold on the target, high ones a looser hold on the target. Molecule `C[C@@H](OC[C@@]1(c2ccccc2)CC[C@]2(CN1)NC(=O)NC2=O)c1cc(C(F)(F)F)cc(C(F)(F)F)c1` [Example 43b] returned a Ki of 0.77 nM.
Regarding `C[C@@H](OC[C@@]1(c2ccccc2)CC[C@]2(CCC(=O)N2)CN1)c1cc(C(F)(F)F)cc(C(F)(F)F)c1` [Example 72a], the Ki came to 0.66 nM.
For the molecule `C[C@@H](OC[C@@]1(c2ccccc2)CC[C@@]2(CN1)COC(=O)N2)c1cc(C(F)(F)F)cc(C(F)(F)F)c1` [Example 73b], the Ki was 0.2 nM.
`C[C@@H](OC[C@@]1(c2ccccc2)CC[C@H](n2cn[nH]c2=O)CN1)c1cc(C(F)(F)F)cc(C(F)(F)F)c1` [Example 109]: the affinity corresponds to a Ki of 0.1 nM.
Molecule `C[C@@H](OC[C@@]1(c2ccccc2)CC[C@]2(CCCC(=O)N2)CN1)c1cc(C(F)(F)F)cc(C(F)(F)F)c1` [Example 110a] registered an inhibition constant Ki of 0.41 nM. Against the preceding molecule, the Ki is about 4.1-fold higher.
Under `C[C@@H](OC[C@@]1(c2ccccc2)CC[C@]2(CCOC(=O)N2)CN1)c1cc(C(F)(F)F)cc(C(F)(F)F)c1` [Example 111a] stands 0.38 nM.

(Values after patent US8796299B2, “NK1 antagonists” (OPKO Health, Inc., priority 2001, dated 2014).)
